Measurements reported in patent US11826375B2, “Phosphinic amide prodrugs of tenofovir” (Merck Sharp & Dohme LLC, priority 2018, dated 2023).

Assays:
HIV-1 = test: Human PBMC based HIV-1 replication assay; type: cell-based; conditions: PHA-activated human PBMCs, 24 h preincubation with compound, infected with GFP-encoding HIV-1 construct
Procedure: Assessing Antiviral Potency in a Human PBMC Based HIV-1 Replication Assay
The antiviral activity of the tenofovir prodrugs of the Examples herein was assessed in a human peripheral blood mononuclear cell (PBMC) based HIV-1 replication assay and performed as follows. Human PBMCs were treated with PHA ([…]) in RPMI 1640 medium containing 10% heat inactivated FBS for 2 to 3 days. Compound plates were prepared by dispensing compounds dissolved in DMSO into wells of 384 well poly-D-lysine-coated plates (0.2 μl/well) using an ECHO acoustic dispenser. Each compound was tested in a 10-point serial 3-fold dilution (typical final concentrations: 5.0 μM-0.1 nM). Controls included no inhibitor (DMSO only) and a combination of three antiviral agents (efavirenz, indinavir, an in-house integrase strand transfer inhibitor at final concentrations of 4 μM each). PHA-activated human PBMCs were added to the compound plates and incubated for 24 hours at 37° C./5% CO2/90% relative humidity. The PBMCs were then infected with an HIV-1 construct that encodes Green Fluorescence Protein (GFP) and the infected cells were incubated at 37° C./5% CO2/90% relative humidity for additional 24 hours.
Infected cells were quantified by counting the number of green cells in each well using an Acumen eX3 scanner. IC50 values were determined by non-linear 4-parameter curve fitting.

[1] = Prodrug stability assay in bio-relevant media (Pancreatin solution in FaSSIF); type: in vitro ADME; conditions: HPLC peak area of prodrug at 5 h / 0 h, 0.5 mg/mL Pancreatin in FaSSIF, 37° C.
Procedure: Prodrug Stability Assay in Bio-Relevant Media
The following assay was employed to evaluate the stability of the prodrugs in simulated gastrointestinal tract conditions. Preparation of fasted state simulated intestinal fluid (FaSSIF) using Phares SIF Powder was carried out according to protocols from Phare Drug Delivery AG (Baselland, Switzerland). For sample preparation, 10 μL stock solutions (10 mM) of prodrug substance in DMSO was added to 990 μL of 0.5 mg/mL Pancreatin solution (Fisher CAS #8049-47-6) in FaSSIF. Two samples were prepared for each compound. If the sample was a clear solution, it was directly analyzed by HPLC. If the sample was not clear, the sample was diluted with 100% MeCN, maintained at 37° C. and observed 5 h later. If the sample was clear, HPLC analysis was directly performed. If the sample was still not clear, the sample was diluted with 100% ACN and assayed by HPLC. All the samples were vortexed for 3 min and observed before injection. For the diluted samples, the area is multiplied by a dilution factor when the data is analyzed. The analysis was carried out with an Agilent 1100 series HPLC with autosampler. The column was a Poroshell 120 EC-C18, 4.6×50 mm, 2.7 μm. The flow rate was 1.8 mL/min, and the injection volume was 5 or 10 μL. UV detection was in the range 210-400 nm. […]

[2] = Human immunodeficiency virus 1, PBMC

**Q.** For `CCCOC(=O)C(C)(C)NP(=O)(CO[C@H](C)Cn1cnc2c(N)ncnc21)C(C(=O)OC(C)C)C(=O)OC(C)C` (single isomer, unassigned) [Example 2A], which IC50 (HIV-1) is on record?
**A.** The IC50 was 73.9 nM.

**Q.** Which IC50 (HIV-1) does the source give for `CCCOC(=O)C(C)(C)NP(=O)(CO[C@H](C)Cn1cnc2c(N)ncnc21)C(C(=O)OC(C)C)C(=O)OC(C)C` (single isomer, unassigned) [Example 2B] here?
**A.** Its IC50 is 6.8 nM.

**Q.** What about the “GI Tract stability” value [1] of the same molecule?
**A.** Its value is 87.2%.

**Q.** With `CCCOC(=O)C(C)(C)NP(=O)(CO[C@H](C)Cn1cnc2c(N)ncnc21)CC(=O)OC(C)C` (single isomer, unassigned) [Example 3A] as the molecule, how does the IC50 (HIV-1; [2]) read?
**A.** Its IC50 is 189 nM.

**Q.** For `CCCOC(=O)C(C)(C)NP(=O)(CO[C@H](C)Cn1cnc2c(N)ncnc21)CC(=O)OC(C)C` (single isomer, unassigned) [Example 3B], which IC50 (HIV-1) is on record?
**A.** Its IC50 is 226 nM.

**Q.** For `CCCOC(=O)C(C)(C)NP(=O)(CO[C@H](C)Cn1cnc2c(N)ncnc21)C(C#N)C#N` (single isomer, unassigned) [Example 6A], which IC50 (HIV-1; [2]) is on record?
**A.** The IC50 was > 2100 nM.

**Q.** With `CCCOC(=O)C(C)(C)NP(=O)(CO[C@H](C)Cn1cnc2c(N)ncnc21)C(C#N)C#N` (single isomer, unassigned) [Example 6B] as the molecule, how does the IC50 (HIV-1) read?
**A.** Its IC50 is > 2100 nM.

**Q.** With `CCCOC(=O)C(C)(C)NP(=O)(CO[C@H](C)Cn1cnc2c(N)ncnc21)CC(=O)N(CC)CC` (single isomer, unassigned) [Example 7A] as the molecule, how does the IC50 (HIV-1) read?
**A.** Its IC50 is 931 nM.

**Q.** Which IC50 (HIV-1) does the source give for `CCCOC(=O)C(C)(C)NP(=O)(CO[C@H](C)Cn1cnc2c(N)ncnc21)CC(=O)N(CC)CC` (single isomer, unassigned) [Example 7B] here?
**A.** Its IC50 is > 2100 nM.

**Q.** For `CCCOC(=O)C(C)(C)NP(=O)(CO[C@H](C)Cn1cnc2c(N)ncnc21)C(C#N)C(=O)OC(C)C` (stereo partly drawn) [Example 1, Propyl 2-((((R)-1-(6-amino-9H-purin-9-yl)propan-2-yloxy)methyl)(1-cyano-2-isopropoxy-2-oxoethyl)phosphorylamino)-2-methylpropanoate], which IC50 (HIV-1; [2]) is on record?
**A.** Its IC50 is 1520 nM.

**Q.** With `CCCOC(=O)C(C)(C)NP(=O)(CC#N)CO[C@H](C)Cn1cnc2c(N)ncnc21` (stereo partly drawn) [Example 4, Propyl 2-((((R)-1-(6-amino-9H-purin-9-yl)propan-2-yloxy)methyl)(cyanomethyl)phosphorylamino)-2-methylpropanoate] as the molecule, how does the IC50 (HIV-1; [2]) read?
**A.** Its IC50 is > 2100 nM.

**Q.** For `CCCOC(=O)C(C)(C)NP(=O)(CO[C@H](C)Cn1cnc2c(N)ncnc21)C(C(=O)OC(C)C)c1ccccc1` (stereo partly drawn) [Example 5, Propyl 2-((((R)-1-(6-amino-9H-purin-9-yl)propan-2-yloxy)methyl)(2-isopropoxy-2-oxo-1-phenylethyl)phosphorylamino)-2-methylpropanoate], which IC50 (HIV-1; [2]) is on record?
**A.** Its IC50 is 58.8 nM.

**Q.** With `CCCOC(=O)C(C)(C)NP(=O)(CO[C@H](C)Cn1cnc2c(N)ncnc21)CC(=O)OC(C)(C)C` (stereo partly drawn) [Example 8, Propyl 2-((((R)-1-(6-amino-9H-purin-9-yl)propan-2-yloxy)methyl)(2-tert-butoxy-2-oxoethyl)phosphorylamino)-2-methylpropanoate] as the molecule, how does the IC50 (HIV-1; [2]) read?
**A.** The IC50 was > 2100 nM.

**Q.** Which IC50 (HIV-1; [2]) does the source give for `CCCOC(=O)C(C)(C)NP(=O)(CO[C@H](C)Cn1cnc2c(N)ncnc21)Cc1ccccc1` (stereo partly drawn) [Example 9, Propyl 2-((((R)-1-(6-amino-9H-purin-9-yl)propan-2-yloxy)methyl)(benzyl)phosphorylamino)-2-methylpropanoate] here?
**A.** The IC50 was 965 nM.
